Test [1] deals with T1, isolated CF1 (Ca2+-ATPase) (Spinacia oleracea, UniProt P00825+P06450).
T1 construct: gene atpB
Put plainly: Ca2+-ATPase activity, released Pi. The class given is biochemical. The conditions noted are these: read-out: Ca^2+-ATPase (%). From the text: Ca2+-ATPase activity, released Pi on isolated CF1 (Ca2+-ATPase)

Test [2] has as its target T2, Mg2+-ATPase bound to thylakoid membrane (membrane-bound CF1; H+-ATPase) (Spinacia oleracea, UniProt P00825+P06450).
T2 construct: gene atpB; with ATP synthase subunit a, chloroplastic; ATP synthase subunit b, chloroplastic; ATP synthase subunit b', chloroplastic; ATP synthase subunit c, chloroplastic
As to the kind of experiment: light-triggered Mg2+-ATPase activity in thylakoids, released Pi. It is filed as biochemical. The conditions noted are these: read-out: Mg^2+-ATPase (%). The source says: light-triggered Mg2+-ATPase activity in thylakoids, released Pi on Mg2+-ATPase bound to thylakoid membrane (membrane-bound CF1; H+-ATPase)

T1 sequence (P00825 whole entry): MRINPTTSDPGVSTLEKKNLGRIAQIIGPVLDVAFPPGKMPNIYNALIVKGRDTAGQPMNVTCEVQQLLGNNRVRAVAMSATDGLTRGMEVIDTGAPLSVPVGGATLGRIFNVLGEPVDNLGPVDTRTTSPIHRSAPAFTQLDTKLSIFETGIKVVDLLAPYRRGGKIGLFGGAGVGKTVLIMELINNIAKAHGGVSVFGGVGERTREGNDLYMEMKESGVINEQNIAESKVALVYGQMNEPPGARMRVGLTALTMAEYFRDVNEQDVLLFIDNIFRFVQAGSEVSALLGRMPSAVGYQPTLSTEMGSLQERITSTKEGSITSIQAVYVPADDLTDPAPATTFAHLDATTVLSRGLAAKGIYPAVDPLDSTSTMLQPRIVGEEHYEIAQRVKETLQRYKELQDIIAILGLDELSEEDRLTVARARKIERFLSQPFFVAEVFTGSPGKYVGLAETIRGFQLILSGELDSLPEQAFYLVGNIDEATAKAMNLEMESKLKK
T1 sequence (P06450 whole entry): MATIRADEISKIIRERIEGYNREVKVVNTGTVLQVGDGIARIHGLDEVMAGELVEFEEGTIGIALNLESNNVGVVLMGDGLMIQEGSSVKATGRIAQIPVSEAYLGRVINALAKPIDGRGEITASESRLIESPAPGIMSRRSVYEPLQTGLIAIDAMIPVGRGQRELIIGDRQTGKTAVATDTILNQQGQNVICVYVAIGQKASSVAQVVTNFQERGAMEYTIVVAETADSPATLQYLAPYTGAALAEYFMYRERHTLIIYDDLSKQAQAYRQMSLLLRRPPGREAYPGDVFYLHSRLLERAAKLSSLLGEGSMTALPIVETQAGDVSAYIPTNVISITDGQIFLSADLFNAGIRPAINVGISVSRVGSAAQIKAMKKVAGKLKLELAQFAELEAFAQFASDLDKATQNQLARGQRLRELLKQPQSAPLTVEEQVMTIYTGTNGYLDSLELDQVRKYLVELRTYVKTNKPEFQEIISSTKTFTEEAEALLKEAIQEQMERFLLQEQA
T1 sequence (P05435 42-364 partner): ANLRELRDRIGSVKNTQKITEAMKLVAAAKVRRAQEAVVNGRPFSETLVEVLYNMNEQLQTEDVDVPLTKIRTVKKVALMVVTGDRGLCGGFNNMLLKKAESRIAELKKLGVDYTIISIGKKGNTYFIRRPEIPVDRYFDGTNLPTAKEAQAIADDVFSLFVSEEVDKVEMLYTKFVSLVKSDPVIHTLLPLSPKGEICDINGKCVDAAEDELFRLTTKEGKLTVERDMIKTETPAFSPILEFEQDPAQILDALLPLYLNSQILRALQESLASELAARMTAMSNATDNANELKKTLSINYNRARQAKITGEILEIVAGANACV
T1 sequence (P11402 71-257 partner): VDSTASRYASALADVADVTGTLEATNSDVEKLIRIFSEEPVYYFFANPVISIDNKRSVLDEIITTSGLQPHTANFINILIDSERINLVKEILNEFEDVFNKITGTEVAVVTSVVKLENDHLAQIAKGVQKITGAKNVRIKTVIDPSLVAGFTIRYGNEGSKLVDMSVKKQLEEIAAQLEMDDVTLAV
T1 sequence (P00833 whole entry partner): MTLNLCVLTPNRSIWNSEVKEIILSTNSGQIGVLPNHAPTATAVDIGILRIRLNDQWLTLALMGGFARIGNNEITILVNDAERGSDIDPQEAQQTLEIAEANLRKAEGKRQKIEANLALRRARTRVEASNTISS

Consider `C=C(C)[C@@H]1CC[C@]2(C)CC[C@]3(C)[C@H](CC[C@@H]4[C@@]5(C)CC[C@H](O)C(C)(C)[C@@H]5CC[C@]43C)[C@@H]12` [compound 1, 3β-Lup-20(29)-en-3-ol], for which the activity at 300 µM in test [1] was determined as 179%. Besides, the activity at 100 µM in test [2] came out at 65%.

Values taken from PMC6264316, “The Triterpenes 3β-Lup-20(29)-en-3-ol and 3β-Lup-20(29)-en-3-yl Acetate and the Carbohydrate 1,2,3,4,5,6-Hexa-O-acetyl-dulcitol as Photosynthesis Light Reactions Inhibitors” (Molecules, 2011).
